Source: ChEMBL document CHEMBL1671617, “Correlation of antimicrobial resistance with beta-lactamases, the OmpA-like porin, and efflux pumps in clinical isolates of Acinetobacter baumannii endemic to New York City” (2008)
Values after ≈ are worked out from the molar mass of the structure shown.

Legend:
Assay type in all cases: functional
Acinetobacter baumannii [1] = test: Antimicrobial activity against ISAba1 linked with the blaOXA-51-type beta-lactamase harboring Acinetobacter baumannii lambda clonal group isolate 29 expressing ampC, ompA, adeM, aadB, aadA1 by Etest method
Acinetobacter baumannii [2] = test: Antimicrobial activity against ISAba1 linked with the blaOXA-51-type beta-lactamase harboring Acinetobacter baumannii lambda clonal group isolate 28 expressing ampC, ompA, adeM, aadB, aadA1 by Etest method
Acinetobacter baumannii [3] = test: Antimicrobial activity against ISAba1 linked with the blaOXA-51-type beta-lactamase harboring Acinetobacter baumannii zeta clonal group isolate 19 expressing ampC, ompA, adeB, adeM, aacC2 by Etest method
Acinetobacter baumannii [4] = test: Antimicrobial activity against Acinetobacter baumannii alpha clonal group isolate 5 expressing ampC, ompA, adeB, adeM, aacC1, aadA1 by Etest method
Acinetobacter baumannii [5] = test: Antimicrobial activity against Acinetobacter baumannii nu clonal group isolate 32 expressing ampC, ompA, adeB, adeM, aadB, aadA2 by Etest method
Acinetobacter baumannii [6] = test: Antimicrobial activity against Acinetobacter baumannii alpha clonal group isolate 4 expressing ampC, ompA, adeB, adeM, aacC1, aadA1 by Etest method
Acinetobacter baumannii [7] = test: Antimicrobial activity against ISAba1 linked with the blaOXA-51-type beta-lactamase harboring Acinetobacter baumannii zeta clonal group isolate 24 expressing ampC, ompA, adeB, adeM, aadA1, aacA4, aacC2, blaSHV-5 by Etest method
Acinetobacter baumannii [8] = test: Antimicrobial activity against ISAba1 linked with the blaOXA-51-type beta-lactamase harboring Acinetobacter baumannii beta clonal group isolate 16 expressing ompA, adeB, adeM, aacA4, blaSHV-5 by Etest method
Acinetobacter baumannii [9] = test: Antimicrobial activity against ISAba1 linked with the blaOXA-51-type beta-lactamase harboring Acinetobacter baumannii beta clonal group isolate 15 expressing ompA, adeB, adeM, aacA4, blaSHV-5 by Etest method
Acinetobacter baumannii [10] = test: Antimicrobial activity against Acinetobacter baumannii unique clonal group isolate 37 expressing ampC, ompA, adeB, adeM by Etest method
Acinetobacter baumannii [11] = test: Antimicrobial activity against ISAba1 linked with the blaOXA-51-type beta-lactamase harboring Acinetobacter baumannii unique clonal group isolate 40 expressing ampC, ompA, adeB, adeM, aadA1, aacA4, aacC2, blaSHV-5 by Etest method
Acinetobacter baumannii [12] = test: Antimicrobial activity against ISAba1 linked with the blaOXA-51-type beta-lactamase harboring Acinetobacter baumannii beta clonal group isolate 18 expressing ompA, adeB, adeM, aacA4, blaSHV-5 by Etest method
Acinetobacter baumannii [13] = test: Antimicrobial activity against ISAba1 linked with the blaOXA-51-type beta-lactamase harboring Acinetobacter baumannii beta clonal group isolate 14 expressing ompA, adeB, adeM, aacA4, blaSHV-5 by Etest method
Acinetobacter baumannii [14] = test: Antimicrobial activity against Acinetobacter baumannii lambda clonal group isolate 27 expressing ampC, ompA, adeB, adeM, aadB, aadA1 by Etest method
Acinetobacter baumannii [15] = test: Antimicrobial activity against ISAba1 linked with the blaOXA-51-type beta-lactamase harboring Acinetobacter baumannii zeta clonal group isolate 23 expressing ampC, ompA, adeB, adeM, aadA1, aacA4, aacC2, aphA6 by Etest method
Acinetobacter baumannii [16] = test: Antimicrobial activity against Acinetobacter baumannii nu clonal group isolate 31 expressing ampC, ompA, adeB, adeM, aadB, aadA2 by Etest method
Acinetobacter baumannii [17] = test: Antimicrobial activity against ISAba1 linked with the blaOXA-51-type beta-lactamase harboring Acinetobacter baumannii beta clonal group isolate 17 expressing ompA, adeB, adeM, aacA4, blaSHV-5 by Etest method
Acinetobacter baumannii [18] = test: Antimicrobial activity against ISAba1 linked with the blaOXA-51-type beta-lactamase harboring Acinetobacter baumannii beta clonal group isolate 11 expressing ompA, adeB, adeM, blaSHV-5 by Etest method
Acinetobacter baumannii [19] = test: Antimicrobial activity against ISAba1 linked with the blaOXA-51-type beta-lactamase harboring Acinetobacter baumannii beta clonal group isolate 12 expressing ompA, adeB, adeM, aacA4, aacC2, blaSHV-5 by Etest method
Acinetobacter baumannii [20] = test: Antimicrobial activity against ISAba1 linked with the blaOXA-51-type beta-lactamase harboring Acinetobacter baumannii zeta clonal group isolate 25 expressing ampC, ompA, adeB, adeM, aadA1, aacA4, aacC2, blaSHV-5 by Etest method
Acinetobacter baumannii [21] = test: Antimicrobial activity against ISAba1 linked with the blaOXA-51-type beta-lactamase harboring Acinetobacter baumannii beta clonal group isolate 13 expressing ompA, adeB, adeM, aacA4, blaSHV-5 by Etest method
Acinetobacter baumannii [22] = test: Antimicrobial activity against Acinetobacter baumannii unique clonal group isolate 39 expressing ampC, ompA, adeM by Etest method
Acinetobacter baumannii [23] = test: Antimicrobial activity against Acinetobacter baumannii nu clonal group isolate 34 expressing ampC, ompA, adeB, adeM by Etest method
Acinetobacter baumannii [24] = test: Antimicrobial activity against ISAba1 linked with the blaOXA-51-type beta-lactamase harboring Acinetobacter baumannii beta clonal group isolate 9 expressing ampC, ompA, adeB, adeM by Etest method
Acinetobacter baumannii [25] = test: Antimicrobial activity against ISAba1 linked with the blaOXA-51-type beta-lactamase harboring Acinetobacter baumannii alpha clonal group isolate 7 expressing ampC, ompA, adeB, adeM, blaSHV-5 by Etest method
Acinetobacter baumannii [26] = test: Antimicrobial activity against Acinetobacter baumannii alpha clonal group isolate 2 expressing ampC, ompA, adeB, adeM, aacC1, aadA1 by Etest method
Acinetobacter baumannii [27] = test: Antimicrobial activity against Acinetobacter baumannii nu clonal group isolate 33 expressing ampC, ompA, adeB, adeM by Etest method
Acinetobacter baumannii [28] = test: Antimicrobial activity against ISAba1 linked with the blaOXA-51-type beta-lactamase harboring Acinetobacter baumannii alpha clonal group isolate 8 expressing ampC, ompA, adeB, adeM, aacC1, aadA1 by Etest method
Acinetobacter baumannii [29] = test: Antimicrobial activity against ISAba1 linked with the blaOXA-51-type beta-lactamase harboring Acinetobacter baumannii alpha clonal group isolate 6 expressing ampC, ompA, adeB, adeM, aacC1, aadA1 by Etest method
Acinetobacter baumannii [30] = test: Antimicrobial activity against Acinetobacter baumannii alpha clonal group isolate 3 expressing ampC, ompA, adeB, adeM, aacC1, aadA1 by Etest method
Acinetobacter baumannii [31] = test: Antimicrobial activity against ISAba1 linked with the blaOXA-51-type beta-lactamase harboring Acinetobacter baumannii zeta clonal group isolate 22 expressing ampC, ompA, adeB, adeM, aadA1, aacA4, aacC2, blaSHV-5 by Etest method
Acinetobacter baumannii [32] = test: Antimicrobial activity against ISAba1 linked with the blaOXA-51-type beta-lactamase harboring Acinetobacter baumannii zeta clonal group isolate 26 expressing ampC, ompA, adeB, adeM, aadA1, aacA4, aacC2, blaSHV-5 by Etest method
Acinetobacter baumannii [33] = test: Antimicrobial activity against Acinetobacter baumannii unique clonal group isolate 38 expressing ampC, ompA, adeB, adeM by Etest method
Acinetobacter baumannii [34] = test: Antimicrobial activity against Acinetobacter baumannii eta clonal group isolate 36 expressing ampC, ompA, adeB, adeM by Etest method
Acinetobacter baumannii [35] = test: Antimicrobial activity against ISAba1 linked with the blaOXA-51-type beta-lactamase harboring Acinetobacter baumannii lambda clonal group isolate 30 expressing ampC, ompA, adeB, adeM, aadB, aadA1 by Etest method
Acinetobacter baumannii [36] = test: Antimicrobial activity against ISAba1 linked with the blaOXA-51-type beta-lactamase harboring Acinetobacter baumannii beta clonal group isolate 10 expressing ompA, adeB, adeM, aacA4, blaSHV-5 by Etest method
Acinetobacter baumannii [37] = test: Antimicrobial activity against ISAba1 linked with the blaOXA-51-type beta-lactamase harboring Acinetobacter baumannii zeta clonal group isolate 20 expressing ampC, ompA, adeB, adeM, aacC2 by Etest method
Acinetobacter baumannii [38] = test: Antimicrobial activity against ISAba1 linked with the blaOXA-51-type beta-lactamase harboring Acinetobacter baumannii alpha clonal group isolate 1 expressing ampC, ompA, adeB, adeM by Etest method
Acinetobacter baumannii [39] = test: Antimicrobial activity against Acinetobacter baumannii eta clonal group isolate 35 expressing ampC, ompA, adeB, adeM by Etest method
Acinetobacter baumannii [40] = test: Antimicrobial activity against ISAba1 linked with the blaOXA-51-type beta-lactamase harboring Acinetobacter baumannii zeta clonal group isolate 21 expressing ampC, ompA, adeB, adeM, aacC2, blaSHV-5 by Etest method

Compound | MIC (Acinetobacter baumannii [1]) [µg/mL] | MIC (Acinetobacter baumannii [2]) [µg/mL] | MIC (Acinetobacter baumannii [3]) [µg/mL] | MIC (Acinetobacter baumannii [4]) [µg/mL] | MIC (Acinetobacter baumannii [5]) [µg/mL] | MIC (Acinetobacter baumannii [6]) [µg/mL] | MIC (Acinetobacter baumannii [7]) [µg/mL] | MIC (Acinetobacter baumannii [8]) [µg/mL] | MIC (Acinetobacter baumannii [9]) [µg/mL] | MIC (Acinetobacter baumannii [10]) [µg/mL] | MIC (Acinetobacter baumannii [11]) [µg/mL] | MIC (Acinetobacter baumannii [12]) [µg/mL] | MIC (Acinetobacter baumannii [13]) [µg/mL] | MIC (Acinetobacter baumannii [14]) [µg/mL] | MIC (Acinetobacter baumannii [15]) [µg/mL] | MIC (Acinetobacter baumannii [16]) [µg/mL] | MIC (Acinetobacter baumannii [17]) [µg/mL] | MIC (Acinetobacter baumannii [18]) [µg/mL] | MIC (Acinetobacter baumannii [19]) [µg/mL] | MIC (Acinetobacter baumannii [20]) [µg/mL] | other results
CN(C)c1cc(NC(=O)CNC(C)(C)C)c(O)c2c1C[C@H]1C[C@H]3[C@H](N(C)C)C(O)=C(C(N)=O)C(=O)[C@@]3(O)C(O)=C1C2=O [TIGECYCLINE] | 0.19 (≈ 0.324 µM) | 0.19 (≈ 0.324 µM) | 0.75 (≈ 1.28 µM) | 1 (≈ 1.71 µM) | 0.5 (≈ 0.854 µM) | 1 (≈ 1.71 µM) | 1 (≈ 1.71 µM) | 0.5 (≈ 0.854 µM) | 0.5 (≈ 0.854 µM) | 0.25 (≈ 0.427 µM) | 0.75 (≈ 1.28 µM) | 3 (≈ 5.12 µM) | 0.5 (≈ 0.854 µM) | 0.19 (≈ 0.324 µM) | 1.5 (≈ 2.56 µM) | 0.5 (≈ 0.854 µM) | 0.5 (≈ 0.854 µM) | 1 (≈ 1.71 µM) | 1 (≈ 1.71 µM) | 1 (≈ 1.71 µM) | MIC (Acinetobacter baumannii [21]): 0.5 µg/mL (≈ 0.854 µM); MIC (Acinetobacter baumannii [22]): 0.25 µg/mL (≈ 0.427 µM); MIC (Acinetobacter baumannii [23]): 0.5 µg/mL (≈ 0.854 µM); MIC (Acinetobacter baumannii [24]): 3 µg/mL (≈ 5.12 µM); MIC (Acinetobacter baumannii [25]): 0.75 µg/mL (≈ 1.28 µM); MIC (Acinetobacter baumannii [26]): 1 µg/mL (≈ 1.71 µM); MIC (Acinetobacter baumannii [27]): 0.5 µg/mL (≈ 0.854 µM); MIC (Acinetobacter baumannii [28]): 2 µg/mL (≈ 3.41 µM); MIC (Acinetobacter baumannii [29]): 0.75 µg/mL (≈ 1.28 µM); MIC (Acinetobacter baumannii [30]): 1 µg/mL (≈ 1.71 µM); MIC (Acinetobacter baumannii [31]): 2 µg/mL (≈ 3.41 µM); MIC (Acinetobacter baumannii [32]): 1 µg/mL (≈ 1.71 µM); MIC (Acinetobacter baumannii [33]): 0.09 µg/mL (≈ 0.154 µM); MIC (Acinetobacter baumannii [34]): 0.25 µg/mL (≈ 0.427 µM); MIC (Acinetobacter baumannii [35]): 2 µg/mL (≈ 3.41 µM); MIC (Acinetobacter baumannii [36]): 1 µg/mL (≈ 1.71 µM); MIC (Acinetobacter baumannii [37]): 0.75 µg/mL (≈ 1.28 µM); MIC (Acinetobacter baumannii [38]): 1 µg/mL (≈ 1.71 µM); MIC (Acinetobacter baumannii [39]): 0.25 µg/mL (≈ 0.427 µM); MIC (Acinetobacter baumannii [40]): 1.5 µg/mL (≈ 2.56 µM)
GENTAMICIN | 16 | 16 | > 256 | 12 | > 256 | 12 | > 256 | 8 | 8 | 6 | > 256 | 64 | 8 | 1.5 | > 256 | > 256 | 8 | 2 | > 256 | > 256 | MIC (Acinetobacter baumannii [21]): 8 µg/mL; MIC (Acinetobacter baumannii [22]): 0.38 µg/mL; MIC (Acinetobacter baumannii [23]): 2 µg/mL; MIC (Acinetobacter baumannii [24]): 6 µg/mL; MIC (Acinetobacter baumannii [25]): 2 µg/mL; MIC (Acinetobacter baumannii [26]): 12 µg/mL; MIC (Acinetobacter baumannii [27]): 2 µg/mL; MIC (Acinetobacter baumannii [28]): 192 µg/mL; MIC (Acinetobacter baumannii [29]): 8 µg/mL; MIC (Acinetobacter baumannii [30]): 12 µg/mL; MIC (Acinetobacter baumannii [31]): > 256 µg/mL; MIC (Acinetobacter baumannii [32]): > 256 µg/mL; MIC (Acinetobacter baumannii [33]): 0.25 µg/mL; MIC (Acinetobacter baumannii [34]): 3 µg/mL; MIC (Acinetobacter baumannii [35]): > 256 µg/mL; MIC (Acinetobacter baumannii [36]): 4 µg/mL; MIC (Acinetobacter baumannii [37]): > 256 µg/mL; MIC (Acinetobacter baumannii [38]): 1 µg/mL; MIC (Acinetobacter baumannii [39]): 3 µg/mL; MIC (Acinetobacter baumannii [40]): > 256 µg/mL
